Results: ChEMBL document CHEMBL1649185, “Antibacterial activity of ultrashort cationic lipo-beta-peptides” (2009)
In brackets after ≈: the same amount, converted by molar mass. Square brackets hold non-standard residues; d marks the D form. Peptide text beside a SMILES is read from it. * marks the point of attachment. Palmitoyl = CCCCCCCCCCCCCCCC(=O)*; Lauroyl = CCCCCCCCCCCC(=O)*

Experiments:
Assay type in all cases: functional
Staphylococcus aureus [1] = assay: Antimicrobial activity against Staphylococcus aureus ATCC 29213 […]
Staphylococcus aureus [2] = assay: Antimicrobial activity against methicillin-resistant Staphylococcus aureus ATCC 33592 […]
[3] = tested on: Staphylococcus epidermidis; assay: Antimicrobial activity against Staphylococcus epidermidis ATCC 14990 […]
[4] = tested on: Staphylococcus epidermidis; assay: Antimicrobial activity against methicillin-resistant Staphylococcus epidermidis CAN-ICU 61589 […]
Enterococcus faecalis = assay: Antimicrobial activity against Enterococcus faecalis ATCC 29212 […]
Enterococcus faecium = assay: Antimicrobial activity against Enterococcus faecium ATCC 27270 […]
Streptococcus pneumoniae = assay: Antimicrobial activity against Streptococcus pneumoniae ATCC 49619 […]
Escherichia coli [5] = assay: Antimicrobial activity against Escherichia coli ATCC 25922 by […]
Escherichia coli [6] = assay: Antimicrobial activity against Escherichia coli CAN-ICU 61714 […]
Escherichia coli [7] = assay: Antimicrobial activity against Escherichia coli CAN-ICU 63074 […]
Pseudomonas aeruginosa [8] = assay: Antimicrobial activity against Pseudomonas aeruginosa ATCC 27853 […]
Pseudomonas aeruginosa [9] = assay: Antimicrobial activity against Pseudomonas aeruginosa CAN-ICU 62308 […]
[10] = tested on: Stenotrophomonas maltophilia; assay: Antimicrobial activity against Stenotrophomonas maltophilia CAN-ICU 62584 […]
Acinetobacter baumannii = assay: Antimicrobial activity against Acinetobacter baumannii CAN-ICU 63169 by […]
Klebsiella pneumoniae = assay: Antimicrobial activity against Klebsiella pneumoniae ATCC 13883 […]

| Compound | MIC (Staphylococcus aureus [1]) [µg/mL] | MIC (Staphylococcus aureus [2]) [µg/mL] | MIC [3] [µg/mL] | MIC [4] [µg/mL] | MIC (Enterococcus faecalis) [µg/mL] | MIC (Enterococcus faecium) [µg/mL] | MIC (Streptococcus pneumoniae) [µg/mL] | MIC (Escherichia coli [5]) [µg/mL] | MIC (Escherichia coli [6]) [µg/mL] | MIC (Escherichia coli [7]) [µg/mL] | MIC (Pseudomonas aeruginosa [8]) [µg/mL] | MIC (Pseudomonas aeruginosa [9]) [µg/mL] | MIC [10] [µg/mL] | MIC (Acinetobacter baumannii) [µg/mL] | MIC (Klebsiella pneumoniae) [µg/mL] |
| --- | --- | --- | --- | --- | --- | --- | --- | --- | --- | --- | --- | --- | --- | --- | --- |
| CCCCCCCCCCCCCCCC(=O)N[C@@H](CCCCN)C(=O)NCC(=O)NCC(=O)N[C@@H](CCCCN)C(=O)O | 8 (≈ 12.8 µM) | 16 (≈ 25.5 µM) | 4 (≈ 6.38 µM) | 8 (≈ 12.8 µM) | 8 (≈ 12.8 µM) | 16 (≈ 25.5 µM) | 128 (≈ 204 µM) | 16 (≈ 25.5 µM) | 16 (≈ 25.5 µM) | 16 (≈ 25.5 µM) | 64 (≈ 102 µM) | 64 (≈ 102 µM) | 128 (≈ 204 µM) | 128 (≈ 204 µM) | 64 (≈ 102 µM) |
| CCCCCCCCCCCCCCCC(=O)N[C@@H](CCCCN)C(=O)NCC(=O)NCC(=O)N[C@H](CCCCN)C(=O)O | 16 (≈ 25.5 µM) | 16 (≈ 25.5 µM) | 8 (≈ 12.8 µM) | 8 (≈ 12.8 µM) | 16 (≈ 25.5 µM) | 16 (≈ 25.5 µM) | 128 (≈ 204 µM) | 16 (≈ 25.5 µM) | 64 (≈ 102 µM) | 16 (≈ 25.5 µM) | 64 (≈ 102 µM) | 64 (≈ 102 µM) | 64 (≈ 102 µM) | 64 (≈ 102 µM) | 64 (≈ 102 µM) |
| CCCCCCCCCCCCCCCC(=O)N[C@H](CCCN)CC(=O)NCC(=O)NCC(=O)N[C@H](CCCN)CC(=O)O | 16 (≈ 25.5 µM) | 32 (≈ 51 µM) | 8 (≈ 12.8 µM) | 16 (≈ 25.5 µM) | 32 (≈ 51 µM) | 32 (≈ 51 µM) | 128 (≈ 204 µM) | 32 (≈ 51 µM) | 32 (≈ 51 µM) | 32 (≈ 51 µM) | 64 (≈ 102 µM) | > 64 | 256 (≈ 408 µM) | 128 (≈ 204 µM) | 128 (≈ 204 µM) |
| CCCCCCCCCCCCCCCC(=O)N[C@@H](CCCCN)C(=O)N[C@@H](C)C(=O)N[C@@H](C)C(=O)N[C@@H](CCCCN)C(=O)O (Palmitoyl-KAAK-OH) | 16 (≈ 24.4 µM) | 16 (≈ 24.4 µM) | 8 (≈ 12.2 µM) | 8 (≈ 12.2 µM) | 16 (≈ 24.4 µM) | 8 (≈ 12.2 µM) | 128 (≈ 195 µM) | 16 (≈ 24.4 µM) | 16 (≈ 24.4 µM) | 16 (≈ 24.4 µM) | 32 (≈ 48.9 µM) | 64 (≈ 97.7 µM) | 128 (≈ 195 µM) | 128 (≈ 195 µM) | 128 (≈ 195 µM) |
| CCCCCCCCCCCCCCCC(=O)N[C@@H](CCCCN)C(=O)N[C@@H](CCCCN)C(=O)N[C@@H](CCCCN)C(=O)N[C@@H](CCCCN)C(=O)O (Palmitoyl-KKKK-OH) | 32 (≈ 41.6 µM) | 16 (≈ 20.8 µM) | 4 (≈ 5.2 µM) | 8 (≈ 10.4 µM) | 16 (≈ 20.8 µM) | 16 (≈ 20.8 µM) | > 64 | 16 (≈ 20.8 µM) | 16 (≈ 20.8 µM) | 32 (≈ 41.6 µM) | 64 (≈ 83.2 µM) | 256 (≈ 333 µM) | 256 (≈ 333 µM) | 256 (≈ 333 µM) | 256 (≈ 333 µM) |
| CCCCCCCCCCCCCCCC(=O)N[C@H](CCCN)CC(=O)NCCC(=O)NCCC(=O)N[C@H](CCCN)CC(=O)O | 64 (≈ 97.7 µM) | 32 (≈ 48.9 µM) | 8 (≈ 12.2 µM) | 16 (≈ 24.4 µM) | 32 (≈ 48.9 µM) | 32 (≈ 48.9 µM) | > 64 | 64 (≈ 97.7 µM) | 64 (≈ 97.7 µM) | 64 (≈ 97.7 µM) | 256 (≈ 391 µM) | 128 (≈ 195 µM) | > 128 | 256 (≈ 391 µM) | > 128 |
| CCCCCCCCCCCCCCCC(=O)N[C@H](CCCN)CC(=O)N[C@H](CCCN)CC(=O)N[C@H](CCCN)CC(=O)N[C@H](CCCN)CC(=O)O | 16 (≈ 20.8 µM) | 16 (≈ 20.8 µM) | 4 (≈ 5.2 µM) | 4 (≈ 5.2 µM) | 32 (≈ 41.6 µM) | 16 (≈ 20.8 µM) | 128 (≈ 166 µM) | 16 (≈ 20.8 µM) | 32 (≈ 41.6 µM) | 32 (≈ 41.6 µM) | 64 (≈ 83.2 µM) | 128 (≈ 166 µM) | 256 (≈ 333 µM) | 256 (≈ 333 µM) | 128 (≈ 166 µM) |
| CCCCCCCCCCCC(=O)N[C@@H](CCCCN)C(=O)N[C@@H](CC(C)C)C(=O)N[C@@H](CC(C)C)C(=O)N[C@@H](CCCCN)C(=O)O (Lauroyl-KLLK-OH) | 16 (≈ 23.4 µM) | 16 (≈ 23.4 µM) | 16 (≈ 23.4 µM) | 16 (≈ 23.4 µM) | 32 (≈ 46.9 µM) | 16 (≈ 23.4 µM) | 128 (≈ 187 µM) | 128 (≈ 187 µM) | 128 (≈ 187 µM) | 128 (≈ 187 µM) | 128 (≈ 187 µM) | 128 (≈ 187 µM) | > 256 | > 64 | 256 (≈ 375 µM) |
| CCCCCCCCCCCCCCCC(=O)N[C@@H](CCCCN)C(=O)N[C@@H](CCCCN)C(=O)N[C@H](CCCCN)C(=O)N[C@@H](CCCCN)C(=O)O (Palmitoyl-KK[dK]K-OH) | 16 (≈ 20.8 µM) | 16 (≈ 20.8 µM) | 4 (≈ 5.2 µM) | 8 (≈ 10.4 µM) | 32 (≈ 41.6 µM) | 16 (≈ 20.8 µM) | > 32 | 32 (≈ 41.6 µM) | 32 (≈ 41.6 µM) | 32 (≈ 41.6 µM) | 32 (≈ 41.6 µM) | 256 (≈ 333 µM) | 256 (≈ 333 µM) | 256 (≈ 333 µM) | 256 (≈ 333 µM) |
| CCCCCCCCCCCC(=O)N[C@@H](CCCCN)C(=O)N[C@@H](CC(C)C)C(=O)N[C@H](CC(C)C)C(=O)N[C@@H](CCCCN)C(=O)O (Lauroyl-KL[dL]K-OH) | 16 (≈ 23.4 µM) | 16 (≈ 23.4 µM) | 8 (≈ 11.7 µM) | 16 (≈ 23.4 µM) | 32 (≈ 46.9 µM) | 32 (≈ 46.9 µM) | 64 (≈ 93.7 µM) | 64 (≈ 93.7 µM) | 64 (≈ 93.7 µM) | 64 (≈ 93.7 µM) | 128 (≈ 187 µM) | 128 (≈ 187 µM) | > 256 | > 256 | > 64 |
| CCCCCCCCCCCC(=O)N[C@H](CCCN)CC(=O)N[C@@H](CC(=O)N[C@@H](CC(=O)N[C@H](CCCN)CC(=O)O)C(C)C)C(C)C | 32 (≈ 46.9 µM) | 32 (≈ 46.9 µM) | 16 (≈ 23.4 µM) | 32 (≈ 46.9 µM) | 64 (≈ 93.7 µM) | 32 (≈ 46.9 µM) | 128 (≈ 187 µM) | 64 (≈ 93.7 µM) | 64 (≈ 93.7 µM) | 64 (≈ 93.7 µM) | 128 (≈ 187 µM) | 128 (≈ 187 µM) | 256 (≈ 375 µM) | > 128 | 256 (≈ 375 µM) |
| GENTAMICIN | 1 | 2 | 0.25 | 32 | – | – | 4 | 1 | 128 | 8 | 8 | 128 | > 512 | 128 | 0.25 |
| CCCCCCCCCCCCCCCC(=O)N[C@@H](CCCCN)C(=O)N[C@@H](C)C(=O)N[C@H](C)C(=O)N[C@@H](CCCCN)C(=O)O (Palmitoyl-KA[dA]K-OH) | 8 (≈ 12.2 µM) | 32 (≈ 48.9 µM) | 4 (≈ 6.11 µM) | 8 (≈ 12.2 µM) | 16 (≈ 24.4 µM) | 8 (≈ 12.2 µM) | 128 (≈ 195 µM) | 32 (≈ 48.9 µM) | 32 (≈ 48.9 µM) | 32 (≈ 48.9 µM) | 64 (≈ 97.7 µM) | 64 (≈ 97.7 µM) | 128 (≈ 195 µM) | 128 (≈ 195 µM) | 128 (≈ 195 µM) |
